Entries after “also recorded” stand apart in the source; their conditions may differ.
Experiments:
rat brain = conditions: intra-cerebroventricular or intra-peritoneal administration; cited from earlier work
MC3T3 cells [1] = experiment: Mineralization, von-Kossa staining; assay type: cell-based, mouse; conditions: 10 days
Experimental: To evaluate the effects of salubrinal on mineralization, MC3T3 cells were grown in the presence of 50 μg/ml of ascorbic acid and 5 mM β-glycerophosphate for 10 days with and without 10 or 50 μM salubrinal, and von-Kossa staining was conducted. Cells were fixed in 10% formalin and incubated in 5% silver nitrate for 30 min. After rinsing in PBS, staining was developed in 5% sodium carbonate for 2 min. They were counterstained with 0.1% nuclear fast red solution. […] In the field-of-view with 10× objective lens, the mean number of positive dots was 3.2-fold (10 μM salubrinal) and 2.9-fold (50 μM salubrinal) more than that for control cells without salubrinal treatment (FIG. 9).

[2] = system: eIF2α-p (phosphorylated form of eukaryotic initiation factor 2—subunit α); experiment: Western analysis of eIF2α-p in response to salubrinal; assay type: cell-based, mouse; conditions: 10 μM or 50 μM, 1 to 5 h and 1 to 2 days
Source text: MS3T3 osteoblast-like cells were used to evaluate the level of eIF2α-p (phosphorylated form of eukaryotic initiation factor 2—subunit α) in response to salubrinal.

MLO-A5 osteocyte cells = experiment: mRNA levels by real-time PCR in osteocyte cells; assay type: cell-based; conditions: 100 nM-50 μM for 1-24 h
Experimental: (§1) Responses to Administration of Salubrinal—In vitro responses to salubrinal: In order to evaluate the effects of salubrinal, MC3T3 E1 osteoblast-like cells and MLO-A5 osteocyte cells (Barragan-Adjemian, C., et al., “Mechanism by which MLO-A5 late osteoblasts/early osteocytes mineralize in culture: similarities with mineralization of lamellar bone,” Calcif. Tissue Int. 79:340-353 (2006)) were incubated with salubrinal at 100 nM-50 μM for 1-24 h. The mRNA levels of the selected genes, TF4, ATF3, Osteocalcin (OCN), and CHOP, were determined by real-time PCR. […] In MC3T3 cells, for instance, the Osteocalcin mRNA level, which is regulated by ATF4 and Runx2 (Xiao et al. 2005), was elevated 11.8±0.2 fold at 10 μM salubrinal in 24 h.

MC3T3 cells [3] = experiment: mRNA expression levels by real-time PCR; assay type: cell-based, mouse
Experimental: Responses to Administration of Thapsigargin—Upregulation of transcription factors linked to bone formation as well as PERK: The effects of 10 nM thapsigargin on mRNA expression levels of ISR-linked genes (ATF4, ATF3, and CHOP) as well as genes involved in bone remodeling (Runx2, Osterix, and Rank1), were examined (FIG. 5). […] Out of 4 transcription factors (ATF4, ATF3, Runx2, and Osterix), the level of ATF4 mRNA was elevated 2-4 fold throughout the treatments. […] The mRNA level of type 1 collagen was elevated 5 h and 10 h for T1h (1 h exposure at 10 nM).
as §1

female SD rats = experiment: Rat tibia healing of surgical wounds (micro CT); assay type: in vivo; conditions: for cortical thickness / cortical thickness elevated vs control: tibia
Source text: Rat tibia-healing of surgical wounds. Twenty female SD rats (˜8 weeks, body weight ˜180 g) received a surgical hole with ˜2.0 mm in diameter in the left and right tibiae (Zhang P., et al., Knee loading accelerates bone healing in mice, J. Bone Miner. Res. 22:1979-1987 (2007)). The hole was located on the medial surface ˜15 mm distant apart from the proximal end of the tibia (Chiba S., et al., Molecular analysis of defect healing in rat diaphyseal bone, J. Vet. Med. Sci. 63:603-606 (2001)). During the first 5 days, 100 μl of salubrinal solution at dosage of 0.025 mg/kg was injected into the left limb and a PBS solution (vehicle control) in the right limb (Wang J W, et al., Locally applied simvastatin promotes fracture healing in ovariectomized rat, Osteoporosis Int. 18:1641-1650 (2007)). Injection was subcutaneous targeted to the wound site. Rats were sacrificed on days 10 or 20 after surgery, and the axial and transverse length of the holes as well as cortical thickness (1.5 mm proximal and distal to the center of the hole) were determined with micro CT imaging (μCT-20, Scanco Medical AG).

mouse hippocampus = conditions: direct injection; cited from earlier work
C57BL/6 mice = experiment: In vivo injection into intramedullary cavity of femora, BMD and BMC; set-up: species or system mouse
Experimental: Responses to Administration of Salubrinal—In vivo responses to salubrinal: In order to evaluate the effects of salubrinal in vivo, salubrinal was injected into an intramedullary cavity of the left femora of C57BL/6 mice and alterations in bone mineral density (BMD) and bone mineral content (BMC) were determined. There were 9 salubrinal treated mice as well as 9 placebo mice (injection of PBS). All mice received 4 injections of either salubrinal or PBS in the left femur, while the right femur was used as contralateral control. In four consecutive injections with a 0.5-inch #26-gauge needle and a Hamilton micro-syringe, the laterial side was used on the 1st and 3rd injetions and the medial side on the 2nd and 4th injections. An injection volume was 20 μl for salubrinal or PBS, and the salubrinal concentration was 50 μM. […] At the time of harvest (2 wks after the 1st injection), an increase in body weight in Salubrinal group (0.80±0.13 g) was higher than that in Placebo group (0.28±0.15 g; p<0.05). Harvested bone samples were analyzed with PIXImus (version 1.4, GE Medical System Lunar) for determination of BMD and BMC.

[4] = system: rat pheochromocytoma cell line; conditions: cited from earlier work

SMILES: O=C(/C=C/c1ccccc1)NC(NC(=S)Nc1cccc2cccnc12)C(Cl)(Cl)Cl (centres unmarked) [salubrinal]
- excitotoxic neuronal death in vivo (rat brain): decreased
- mean number of von-Kossa positive dots vs control cells (MC3T3 cells [1]; 10 μM): 3.2 fold
- mean number of von-Kossa positive dots vs control cells (MC3T3 cells [1]; 50 μM): 2.9 fold
- phosphorylated level of eIF2α [2]: Elevated
- mRNA levels of the selected genes (MLO-A5 osteocyte cells): did not show any significant alterations
- Osteocalcin mRNA level (MC3T3 cells [3]; 10 μM in 24 h): 11.8±0.2 fold
- mRNA levels of the selected genes (TF4, ATF3, Osteocalcin, CHOP) (MC3T3 cells [3]; MC3T3 cells, 100 nM-50 μM for 1-24 h): upregulated
- size of the wounds (female SD rats; tibia medial cortex, day 10): 1.614±0.014 mm
- wound size smaller vs control (female SD rats; tibia medial cortex, day 10, 0.025 mg/kg s.c. first 5 days): 12.3%
- size of the wounds (female SD rats; tibia medial cortex, day 20): 1.375±0.033 mm
- wound size decreased vs control (female SD rats; tibia medial cortex, day 20): 19.1%
- cortical thickness (female SD rats; day 10): 0.434±0.006 mm
- cortical thickness elevated vs control (female SD rats; day 10): 11.6%
- cortical thickness (female SD rats; day 20): 0.537±0.005 mm
- cortical thickness elevated vs control (female SD rats; day 20): 20.3%
- ATF4-dependent long-term synaptic plasticity and memory (mouse hippocampus): modulated
- BMC vs contralateral control (C57BL/6 mice; femur, 20 μl 50 μM injection): trend to elevate; also recorded: Increased
- BMD vs contralateral control (C57BL/6 mice; femur, 20 μl 50 μM injection): Increased
- BMD (C57BL/6 mice; injected femur, mean±s.e.m.): 0.0456±0.0011 g/cm^2
- protection from ER stress-induced apoptosis [4]: protect

— patent US20120295935A1, “MIXED AMINAL PHARMACEUTICAL COMPOSITIONS AND USES THEREOF” (priority 2010, published 2012)
